Experimental data as given in US6479490B2, “3-indolyl-4-phenyl-1H-pyrrole-2,5-dione derivatives as inhibitors of glycogen synthase kinase-3β” (Syntex (U.S.A.) LLC, priority 2000, dated 2002).
Structures can show the parent of a compound that is named as a salt.

Target: T1, truncated form of recombinant rabbit GSK-3β enzyme (Oryctolagus cuniculus, UniProt G1T8E2)
T1 construct: The construct was cloned in pGEX-3X vector; fused on or other part: GST tag at the N-terminus, inferred from the pGEX-3X vector and the glutathione sepharose 4B purification with glutathione elution
T1 sequence (G1T8E2 1-432): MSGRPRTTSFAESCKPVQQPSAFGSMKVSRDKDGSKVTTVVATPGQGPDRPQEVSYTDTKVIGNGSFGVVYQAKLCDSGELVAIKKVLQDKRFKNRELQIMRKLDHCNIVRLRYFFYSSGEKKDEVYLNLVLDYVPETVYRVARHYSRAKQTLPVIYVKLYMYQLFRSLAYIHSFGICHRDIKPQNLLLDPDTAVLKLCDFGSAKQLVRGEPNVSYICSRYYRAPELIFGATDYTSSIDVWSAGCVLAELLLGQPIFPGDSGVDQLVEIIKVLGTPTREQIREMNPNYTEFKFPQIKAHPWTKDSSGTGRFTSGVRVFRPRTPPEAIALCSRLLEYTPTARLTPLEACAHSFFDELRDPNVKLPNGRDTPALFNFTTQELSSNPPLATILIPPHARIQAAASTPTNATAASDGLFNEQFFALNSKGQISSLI
Experiment: Inhibition of Glycogen Synthase Kinase-3β, in vitro assay
Format: biochemical
Conditions: GSK-3β inhibition, 40 μM ATP, CREB-peptide substrate, 30° C. for 1 h
Procedure: The in vitro GSK-3β inhibitory activity of compounds of this invention was determined with a truncated form of recombinant rabbit GSK-3β enzyme.
The construct was cloned in pGEX-3X vector according to the procedure described in Wang, Q. M. et al., J. Biol. Chem. 269, 14566-14574 (1994). Ten amino acids at the N-terminus were deleted to obtain constitutively active GSK-3β ((see Murai H. et al., FEBS Lett. 392,153-60, (1996)). GSK-3β was expressed in BL21 DE3 cells. The cells were grown at 37° C. until they reached mid log phase and then induced with isopropyl-beta-(D)-thiogalactopyranoside (final concentration 0.4 mM) at 30° C. for 2 h. The cells were homogenized and the cell extract was loaded on a glutathione sepharose 4B column. GSK-3β was eluted with glutathione buffer (50 mM Tris pH 8 and 10 mM reduced glutathione). The eluate was collected in 3 minute fractions and assayed for GSK-3β content on a 10% SDS PAGE (polyacrylamide gel electrophoresis). Fractions above 20% peak height were pooled, aliquoted, and stored at −80° C. until used.
The GSK-3β […] was performed in 50 μl reactions in a 96 well polypropylene plate, each reaction containing 20 mM magnesium chloride, 40 μM ATP, 2 mM DTT, 88.5 μM biotinylated and phosphorylated CREB-peptide substrate (biotin-[…](PO4)YR-OH, see Wang, Q. M. et al., J. Biol. Chem. 269, 14566-14574 (1994)), [γ-^33P] ATP (1 μCi), and 2 μl of compounds of this invention in DMSO (various concentrations). 15 μl of GSK-3β (various concentrations) was added and the reaction mixture was incubated at 30° C. for 1 h. The reaction was stopped by transferring 25 μl of the reaction mixture to a phosphocellulose plate containing 130 μl of 1.85% phosphoric acid. The free radionucleotides in the membrane were washed off under vacuum with 1.85% phosphoric acid (5 times). After the last wash, the plate was transferred to an adoptor plate and 50 μl of scintillation cocktail (Microscint-20, Packard, cat. #20-133) was added to each well and the amount of radioactivity was counted in a top counter.
Work on `O=C1NC(=O)C(c2c[nH]c3ccccc23)=C1c1cccc(OCCN2CCOCC2)c1` [III-3, 3-(1H-indol-3-yl)-4-[3-(2-morpholin-4-ylethoxy)phenyl]-1H-pyrrole-2,5-dione] yielded an IC50 of 230 nM.
In the case of `Cn1cc(C2=C(c3ccccc3OCC(O)CO)C(=O)NC2=O)c2ccccc21` (centres unmarked) [Compound I-1, 3-(1-methylindol-3-yl)-4-{2-[(-2-hydroxy-2-hydroxymethyl)ethyloxy]-phenyl}-1H-pyrrole-2,5-dione], the IC50 is reported as 194 nM.
For `Cn1cc(C2=C(c3cccc(OCCN)c3)C(=O)NC2=O)c2ccccc21` [II-1, 3-(1-methylindol-3-yl)-4-[3-(2-aminoethyloxy)phenyl]-1H-pyrrole-2,5-dione], the IC50 was 20 nM.
For `Cn1cc(C2=C(c3cccc(OCCN4CCOCC4)c3)C(=O)NC2=O)c2ccccc21` [II-4, 3-(1-methylindol-3-yl)-4-[3-(2-morpholin-4-ylethyloxy)phenyl]-1H-pyrrole-2,5-dione], the IC50 was 29.6 nM.
In the case of `Cn1cc(C2=C(c3cccc(OCCCN)c3)C(=O)NC2=O)c2ccccc21` [II-2, 3-(1-methylindol-3-yl)-4-[3-(3-aminopropyloxy)phenyl]-1H-pyrrole-2,5-dione], the IC50 is reported as 26.4 nM.
Work on `Cn1cc(C2=C(c3ccc(OC[C@@H]4COC(C)(C)O4)cc3)C(=O)NC2=O)c2ccccc21` [IV-1, 3-(1-methylindol-3-yl)-4-[4-((R)-2,2-dimethyl-1,3-dioxolan-4-ylmethyloxy)phenyl]-1H-pyrrole-2,5-dione] yielded an IC50 of 133 nM.

Tested on: not given
Experiment: not given
Conditions: not given
In the case of `Cn1cc(C2=C(c3cccc(OCCN)c3)C(=O)NC2=O)c2ccccc21` (as salt: hydrochloride) [II-1, 3-(1-methylindol-3-yl)-4-[3-(2-aminoethyloxy)phenyl]-1H-pyrrole-2,5-dione], the melting point is reported as 182.4 to 187 °C.
Work on `Cn1cc(C2=C(c3cccc(NCC(O)CO)c3)C(=O)NC2=O)c2ccccc21` (racemic) [II-9, 3-(1-methylindol-3-yl)-4-{3-[(2-(RS)-hydroxy-2-hydroxymethyl)ethylamino]phenyl}-1H-pyrrole-2,5-dione] yielded a melting point of 160 to 163.5 °C.
Work on `Cn1cc(C2=C(c3cccc(OC[C@H]4COC(C)(C)O4)c3)C(=O)NC2=O)c2ccccc21` [II-7, 3-(1-methylindol-3-yl)-4-[3-((S)-2,2-dimethyl-1,3-dioxolan-4-ylmethyloxy)phenyl]-1H-pyrrole-2,5-dione] yielded a melting point of 186.8 to 187.4 °C.
Work on `Cn1cc(C2=C(c3cccc(OCCCO[Si](C)(C)C(C)(C)C)c3)C(=O)NC2=O)c2ccccc21` yielded a melting point of 151.2 to 151.7 °C.
In the case of `Cn1cc(C2=C(c3cccc(OCCCO)c3)C(=O)NC2=O)c2ccccc21` [II-20], the melting point is reported as 150.2 to 152.6 °C.
Work on `CC(CO)Nc1cccc(C2=C(c3cn(C)c4ccccc34)C(=O)NC2=O)c1` (racemic) [II-22, 3-(1-methylindol-3-yl)-4-[3-(2-hydroxy-1-methylethylamino)phenyl]-1H-pyrrole-2,5-dione] yielded a melting point of 203.1 to 205.8 °C.
`Cn1cc(C2=C(c3cccc(NCCCO[Si](C)(C)C(C)(C)C)c3)C(=O)NC2=O)c2ccccc21` showed a melting point of 58 to 65 °C.
Work on `Cn1cc(C2=C(c3cccc(N4CCOCC4)c3)C(=O)NC2=O)c2ccccc21` (as salt: hydrochloride) [II-15, 3-(1-methylindol-3-yl)-4-(3-morpholin-4-ylphenyl)-1H-pyrrole-2,5-dione hydrochloride] yielded a melting point of 205.3 to 212.6 °C.
With `Cn1cc(C2=C(c3cccc(OCC4COC(C)(C)O4)c3)C(=O)NC2=O)c2ccccc21` (stereo in doubt) [II-6, 3-(1-methylindol-3-yl)-4-[3-((R)-2,2-dimethyl-1,3-dioxolan-4-ylmethyloxy)phenyl]-1H-pyrrole-2,5-dione] the melting point was 220.8 to 221.2 °C.
Compound `Cn1cc(C2=C(c3cccc(N4CCC(O)CC4)c3)C(=O)NC2=O)c2ccccc21` [II-29, 3-[3-(4-hydroxypiperidin-1-yl)phenyl]-4-(1-methyl-1H-indol-3-yl)-1H-pyrrole-2,5-dione] has a melting point of 136 to 141 °C.
In the case of `Cn1cc(C2=C(c3cccc(OCC(O)CO)c3)C(=O)NC2=O)c2ccccc21` (stereo in doubt) [II-5, 3-(1-methylindol-3-yl)-4-{3-[((S)-2-hydroxy-2-hydroxymethyl)ethyloxy]-phenyl]-1H-pyrrole-2,5-dione], the melting point is reported as 176.9 to 178.1 °C.
Work on `Cn1cc(C2=C(c3ccccc3OCC(O)CO)C(=O)NC2=O)c2ccccc21` (centres unmarked) [Compound I-1, 3-(1-methylindol-3-yl)-4-{2-[(-2-hydroxy-2-hydroxymethyl)ethyloxy]-phenyl}-1H-pyrrole-2,5-dione] yielded a melting point of 245 to 247.1 °C.
With `Cn1cc(C2=C(c3cccc(NC4COC(C)(C)OC4)c3)C(=O)NC2=O)c2ccccc21` [II-10, 3-(1-methylindol-3-yl)-4-[3-(2,2-dimethyl-1,3-dioxan-5-ylamino)phenyl]-1H-pyrrole-2,5-dione] the melting point was 201 to 203 °C.
`Cn1cc(C2=C(c3ccc(OCC(O)CO)cc3)C(=O)NC2=O)c2ccccc21` (stereo in doubt) [IV-6, 3-(1-methylindol-3-yl)-4-{4-[((R)-2-hydroxy-2-hydroxymethyl)ethyloxy]-phenyl}-1H-pyrrole-2,5-dione] showed a melting point of 220.3 to 222.7 °C.
For `Cn1cc(C2=C(c3cccc(NCCO)c3)C(=O)NC2=O)c2ccccc21` (as salt: hydrochloride) [II-19, 3-(1-methylindol-3-yl)4-[3-(2-hydroxyethylamino)phenyl]-1H-pyrrole-2,5-dione], the melting point was 170.3 to 170.6 °C.
`Cn1cc(C2=C(c3cccc(OCCN4CCOCC4)c3)C(=O)NC2=O)c2ccccc21` [II-4, 3-(1-methylindol-3-yl)-4-[3-(2-morpholin-4-ylethyloxy)phenyl]-1H-pyrrole-2,5-dione] showed a melting point of 197.7 to 199 °C.
`Cn1cc(C2=C(c3ccccc3OCC3COC(C)(C)O3)C(=O)NC2=O)c2ccccc21` (racemic) [Compound I-2, 3-(1-methylindol-3-yl)-4-[2-((RS)-2,2-dimethyl-1,3-dioxolan-4-ylmethyloxy)phenyl]-1H-pyrrole-2,5-dione] gave a melting point of 220.8 to 221.2 °C.
Compound `O=C1NC(=O)C(c2cn(CCCO)c3ccc(F)cc23)=C1c1cccc(NCC(O)CO)c1` (racemic) [III-6, 3-{3-[(2,3-dihydroxypropyl)amino]phenyl}-4-[5-fluoro-1-(3-hydroxypropyl)-1H-indol-3-yl]-1H-pyrrole-2,5-dione] has a melting point of 118 to 125 °C.
Compound `CC(O)CCNc1ccc(C2=C(c3cn(C)c4ccccc34)C(=O)NC2=O)cc1` (centres unmarked) [IV-4] has a melting point of 58 to 61.5 °C.
For `Cn1cc(C2=C(c3cccc(OC[C@H](O)CO)c3)C(=O)NC2=O)c2ccccc21` [II-3, 3-(1-methylindol-3-yl)-4-{3-[((R)-2-hydroxy-2-hydroxymethyl)ethyloxy]phenyl}-1H-pyrrole-2,5-dione], the melting point was 177.7 to 178 °C.
